Experimental data published in ChEMBL document CHEMBL1201862, “PubChem BioAssay data set” (2004).
Calls of active or inactive are those of the source. No stated cut-off is given here; in the data, actives have a measured IC50 and inactives only a lower limit.

Biological target: Envelope glycoprotein gp160 (Human immunodeficiency virus 1, UniProt Q6QLK5)
Assay: cell-free HIV fusion peptide-binding blockers – biochemical, uHTS, fluorescence dequenching, […] (AID 1986)

Chain of Envelope glycoprotein gp160 (Q6QLK5 whole entry, the tested form may be a part): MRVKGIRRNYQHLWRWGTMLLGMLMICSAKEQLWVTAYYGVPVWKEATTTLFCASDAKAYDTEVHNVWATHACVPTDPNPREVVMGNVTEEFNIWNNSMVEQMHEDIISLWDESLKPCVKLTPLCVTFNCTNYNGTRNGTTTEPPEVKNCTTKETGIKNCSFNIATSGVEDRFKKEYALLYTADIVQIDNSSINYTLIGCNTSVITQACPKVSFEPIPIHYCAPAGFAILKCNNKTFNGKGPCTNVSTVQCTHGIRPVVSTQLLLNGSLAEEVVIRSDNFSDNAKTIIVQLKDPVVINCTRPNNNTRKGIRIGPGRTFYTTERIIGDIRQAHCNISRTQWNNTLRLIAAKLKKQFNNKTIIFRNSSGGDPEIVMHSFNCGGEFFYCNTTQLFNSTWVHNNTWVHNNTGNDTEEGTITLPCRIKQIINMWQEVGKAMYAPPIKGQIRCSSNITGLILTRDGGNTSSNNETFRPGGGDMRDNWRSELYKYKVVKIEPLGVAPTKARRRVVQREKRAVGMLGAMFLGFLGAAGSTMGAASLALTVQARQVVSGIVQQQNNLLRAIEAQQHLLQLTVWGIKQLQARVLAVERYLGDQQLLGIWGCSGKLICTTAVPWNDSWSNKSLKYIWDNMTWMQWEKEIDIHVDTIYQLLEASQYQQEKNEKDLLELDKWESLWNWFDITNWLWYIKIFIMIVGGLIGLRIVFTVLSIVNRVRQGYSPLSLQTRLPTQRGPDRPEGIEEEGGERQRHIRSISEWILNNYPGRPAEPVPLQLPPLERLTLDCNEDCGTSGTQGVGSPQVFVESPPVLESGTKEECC

O=C(O)COc1ccccc1/C=N/Nc1ccc(S(=O)(=O)Nc2ccc(Cl)cc2)cc1[N+](=O)[O-]
IC50: 19.6 µM (active)

O=C(O)c1cc(-c2ccc(-c3c(-c4ccc5c(c4)OCO5)noc3-c3ccsc3)cc2)nc2ccccc12
IC50: 52.2 µM (active)

COc1cc(/C=C2/SC(=S)NC2=O)ccc1OS(=O)(=O)c1ccc(C)cc1
IC50: 16.5 µM (active)

O=C(CCN1C(=O)/C(=C\C=C\c2ccccc2)SC1=S)Nc1ccccc1C(=O)O
IC50: 20.2 µM (active)

O=C(Nc1cc(S(=O)(=O)N2CCCCC2)ccc1Cl)c1ccccc1NS(=O)(=O)c1ccc(F)cc1
IC50: 13.4 µM (active)
